What was measured:
LIM domain kinase 1 [1] = molecular target: T1, LIM domain kinase 1 (Homo sapiens, UniProt P53667); assay: Inhibition of LIMK1 using cofilin-2 as substrate after 60 mins by Kinase-Glo assay
LIM domain kinase 1 [2] = molecular target: T1, LIM domain kinase 1; assay: Inhibition of LIMK1 using cofilin-2 as substrate after 60 mins by TR-FRET assay

T1 sequence (P53667 whole entry, the tested form may be a part): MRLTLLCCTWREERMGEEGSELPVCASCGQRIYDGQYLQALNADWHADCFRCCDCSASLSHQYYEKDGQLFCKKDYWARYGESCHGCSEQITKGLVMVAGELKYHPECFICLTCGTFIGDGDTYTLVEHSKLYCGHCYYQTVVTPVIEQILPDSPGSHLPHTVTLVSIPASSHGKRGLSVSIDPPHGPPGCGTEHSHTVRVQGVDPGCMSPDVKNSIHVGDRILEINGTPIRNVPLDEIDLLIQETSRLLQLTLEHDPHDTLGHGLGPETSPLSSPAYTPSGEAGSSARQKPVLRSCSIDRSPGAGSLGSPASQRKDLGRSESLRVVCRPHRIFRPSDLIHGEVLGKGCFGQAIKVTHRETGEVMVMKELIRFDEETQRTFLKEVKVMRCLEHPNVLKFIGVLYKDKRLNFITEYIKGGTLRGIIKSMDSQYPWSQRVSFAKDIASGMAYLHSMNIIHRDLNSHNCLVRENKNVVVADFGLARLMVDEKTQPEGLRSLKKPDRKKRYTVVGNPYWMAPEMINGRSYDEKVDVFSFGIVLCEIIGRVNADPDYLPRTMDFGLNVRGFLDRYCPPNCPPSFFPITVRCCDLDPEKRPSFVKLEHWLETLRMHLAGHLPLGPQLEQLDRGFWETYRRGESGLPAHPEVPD

Compound | IC50 (LIM domain kinase 1 [1]) | IC50 (LIM domain kinase 1 [2])
CN(C)c1ncnc2sc3c(c12)CCCC3 | > 100 µM | > 100 µM
COc1ccc(Nc2ncnc3sc4c(c23)CCCC4)cc1 | > 100 µM | > 100 µM
OCCNc1ncnc2sc3c(c12)CCCC3 | > 100 µM | > 100 µM
c1ccc(CCNc2ncnc3sc4c(c23)CCCC4)cc1 | > 100 µM | > 100 µM
Cc1sc2ncnc(N)c2c1C | 4.4 µM | 4.4 µM
Nc1nc(-c2ccccc2)nc2sc3c(c12)CCCC3 | > 100 µM | > 100 µM
CC1(C)Cc2c(sc3ncnc(N)c23)CO1 | 12.7 µM | 12.7 µM
Nc1ncnc2c1sc1ccccc12 | 7 µM | 
Cn1c2ccccc2c2ncnc(N)c21 | 4 µM | 
Nc1ncnc2c1sc1cc(-c3ccccc3)ccc12 | 0.3 µM | 
Cn1c2cc(-c3ccccc3)ccc2c2ncnc(N)c21 | 0.26 µM | 
COc1ccc(-c2sc3ncnc(N)c3c2C)cc1OC | 3.2 µM | 3.2 µM
Nc1ncnc2sc3c(c12)Cc1ccccc1-3 | 11 µM | 11 µM
CCOC(=O)C1CCc2c(sc3ncnc(N)c23)C1 (stereo not given) | 2.3 µM | 2.3 µM
NC(=O)C1CCc2c(sc3ncnc(N)c23)C1 (stereo not given) | 9.1 µM | 9.1 µM
Nc1ncnc2sc3c(c12)CCC(C(=O)N1CCOCC1)C3 (stereo not given) | 9.5 µM | 9.5 µM
Nc1ncnc2sc3c(c12)CCN(Cc1ccccc1)C3 | 0.66 µM | 0.66 µM
CC1(C)CCc2c(sc3ncnc(N)c23)C1 | 2.8 µM | 2.8 µM
Nc1ncnc2sc3c(c12)CCOC3 | 3.5 µM | 3.5 µM
Nc1ncnc2sc3c(c12)CCc1ccccc1-3 | 4.3 µM | 4.3 µM
Nc1ncnc2sc3c(c12)CCC(c1ccccc1)C3 (stereo not given) | > 20 µM | > 20 µM
Cc1c(-c2ccccc2)sc2ncnc(N)c12 | 17 µM | 17 µM
Nc1ncnc2sc3c(c12)CCC(C(=O)O)C3 (stereo not given) | > 20 µM | > 20 µM

Compound | IC50 (LIM domain kinase 1 [1]) | IC50 (LIM domain kinase 1 [2])
Nc1ncnc2sc3c(c12)CCC(C(=O)NCc1ccccc1)C3 (stereo not given) | 8.6 µM | 8.6 µM
Nc1ncnc2sc3c(c12)CCCC3 | 4 µM | 4 µM
Nc1ncnc2sc3c(c12)CCC3 | 5.3 µM | 5.3 µM
Nc1ncnc2sc3c(c12)CCCCC3 | 2.5 µM | 2.5 µM
Cc1nc(N)c2c3c(sc2n1)CCCC3 | > 100 µM | > 100 µM
Nc1nc(S)nc2sc3c(c12)CCCCC3 | > 100 µM | > 100 µM
CSc1nc(N)c2c3c(sc2n1)CCC3 | > 100 µM | > 100 µM
Nc1nc(=S)[nH]c2sc3c(c12)CCCC3 | > 100 µM | > 100 µM
Nc1nc(SCC(=O)O)nc2sc3c(c12)CCCC3 | > 100 µM | > 100 µM
Nc1nc(-c2cccs2)nc2sc3c(c12)CCCC3 | > 100 µM | > 100 µM
CSc1nc(N)c2c3c(sc2n1)CCCCC3 | > 100 µM | > 100 µM
CNc1ncnc2sc3c(c12)CCCC3 | > 100 µM | > 100 µM
NCCNc1ncnc2sc3c(c12)CCCC3 | > 100 µM | > 100 µM
CC(Nc1ncnc2sc3c(c12)CCCC3)c1ccccc1 (stereo not given) | > 100 µM | > 100 µM
c1nc(N2CCCCC2)c2c3c(sc2n1)CCCC3 | > 100 µM | > 100 µM
Nc1ncnc2sc3c(c12)CC1CC3C1 | 1.8 µM | 1.8 µM
CC1CCc2c(sc3ncnc(N)c23)C1 (stereo not given) | 18 µM | 18 µM
CC1(C)CCc2sc3ncnc(N)c3c21 | 2.1 µM | 2.1 µM
CC1CCCc2sc3ncnc(N)c3c21 (stereo not given) | 2.7 µM | 2.7 µM
NC(=O)c1sc2ncccc2c1N | 37 µM | 
NC(=O)c1sc2ccccc2c1N | 33 µM | 
Nc1ncnc2c1sc1ncccc12 | 9 µM | 
CSc1nc(N)c2c3c(sc2n1)CCCC3 | > 100 µM | > 100 µM
